Assay results taken from ChEMBL document CHEMBL1201862, “PubChem BioAssay data set” (2004).
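96-well plates; 48 h exposure; 5 concentrations. Endpoints by linear interpolation between flanking doses. Not reached: highest tested concentration assigned. GI50 is the concentration that inhibits growth by half.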 Active and inactive are the calls of the source. Rule as the data show it: active = GI50 up to about 1.1 µM and inactive = higher.

Assays:
Assay in all cases: NCI-60 cell line screen, 48 h
[1] = system: NCI-H23
[2] = system: COLO 205
[3] = system: OVCAR-4
[4] = system: Malme-3M
[5] = system: HCC 2998
[6] = system: MOLT-4
[7] = system: SK-MEL-28
[8] = system: HOP-92
[9] = system: DMS-114
[10] = system: HCT-116
[11] = system: NCI-H226
[12] = system: HOP-62
[13] = system: NCI-H460
[14] = system: HL-60
[15] = system: DMS-273
[16] = system: RPMI-8226
[17] = system: NCI-H522
[18] = system: RXF 631
[19] = system: SNB-75
[20] = system: SR
[21] = system: XF498
[22] = system: IGROV-1
[23] = system: CCRF-CEM
[24] = system: K562
[25] = system: SNB-78
[26] = system: DLD-1
[27] = system: SF-539
[28] = system: A498
[29] = system: UACC-62
[30] = system: SK-OV-3
[31] = system: M14
[32] = system: 786-0
[33] = system: LXFL 529
[34] = system: M19-MEL
[35] = system: SF-268
[36] = system: SN12C
[37] = system: CAKI-1
[38] = system: SK-MEL-2
[39] = system: UO-31
[40] = system: SNB-19
[41] = system: RXF 393
[42] = system: HCT-15
[43] = system: UACC-257
[44] = system: EKVX
[45] = system: A549
[46] = system: ACHN
[47] = system: HOP-18
[48] = system: OVCAR-3
[49] = system: SK-MEL-5
[50] = system: OVCAR-8
[51] = system: TK-10
[52] = system: U-251
[53] = system: KM12
[54] = system: SW-620
[55] = system: KM-20L2

In the case of `CCN(CC)C1CC(n2cc(C)c(=O)[nH]c2=O)OC1CO` (stereo unspecified), the GI50 [1] is reported as > 100 µM (inactive), the GI50 [2] is reported as > 100 µM (inactive) and the GI50 [3] is reported as > 100 µM (inactive). The GI50 [4] was > 100 µM (inactive), the GI50 [5] was > 100 µM (inactive) and the GI50 [6] was > 100 µM (inactive). The GI50 [7] was > 100 µM (inactive), the GI50 [8] was > 100 µM (inactive) and the GI50 [9] was > 100 µM (inactive). For the same molecule, the GI50 [10] was > 100 µM (inactive), the GI50 [11] was > 100 µM (inactive) and the GI50 [12] was > 100 µM (inactive). The GI50 [13] was > 100 µM (inactive), the GI50 [14] was > 100 µM (inactive) and the GI50 [15] was > 100 µM (inactive). For the same molecule, the GI50 [16] was > 100 µM (inactive), the GI50 [17] was > 100 µM (inactive) and the GI50 [18] was > 100 µM (inactive). For the same molecule, the GI50 [19] was > 100 µM (inactive), the GI50 [20] was > 100 µM (inactive) and the GI50 [21] was > 100 µM (inactive). For the same molecule, the GI50 [22] was > 100 µM (inactive), the GI50 [23] was > 100 µM (inactive) and the GI50 [24] was > 100 µM (inactive). For the same molecule, the GI50 [25] was > 100 µM (inactive), the GI50 [26] was > 100 µM (inactive) and the GI50 [27] was > 100 µM (inactive). The GI50 [28] was > 100 µM (inactive), the GI50 [29] was > 100 µM (inactive) and the GI50 [30] was > 100 µM (inactive). For the same molecule, the GI50 [31] was > 100 µM (inactive), the GI50 [32] was > 100 µM (inactive) and the GI50 [33] was > 100 µM (inactive). For the same molecule, the GI50 [34] was > 100 µM (inactive), the GI50 [35] was > 100 µM (inactive) and the GI50 [36] was > 100 µM (inactive). For the same molecule, the GI50 [37] was > 100 µM (inactive), the GI50 [38] was > 100 µM (inactive) and the GI50 [39] was > 100 µM (inactive).

With `O=C(Nc1ccc(Nc2ccc(NC(=O)c3ccccc3)c3c2C(=O)c2ccccc2C3=O)c2c1C(=O)c1ccccc1C2=O)c1ccccc1` the GI50 [2] was > 100 µM (inactive), the GI50 [40] was > 100 µM (inactive) and the GI50 [3] was > 100 µM (inactive). For the same molecule, the GI50 [41] was > 100 µM (inactive), the GI50 [42] was > 100 µM and the GI50 [4] was > 100 µM (inactive). For the same molecule, the GI50 [43] was > 100 µM (inactive), the GI50 [44] was > 100 µM (inactive) and the GI50 [5] was > 100 µM (inactive). For the same molecule, the GI50 [6] was > 100 µM (inactive), the GI50 [45] was > 100 µM (inactive) and the GI50 [7] was > 100 µM (inactive). For the same molecule, the GI50 [46] was > 100 µM (inactive), the GI50 [47] was > 100 µM (inactive) and the GI50 [9] was > 100 µM (inactive). For the same molecule, the GI50 [10] was > 100 µM (inactive), the GI50 [11] was > 100 µM (inactive) and the GI50 [12] was > 100 µM (inactive). For the same molecule, the GI50 [13] was > 100 µM (inactive), the GI50 [14] was > 100 µM (inactive) and the GI50 [15] was > 100 µM (inactive). The GI50 [16] was > 100 µM (inactive), the GI50 [17] was > 100 µM (inactive) and the GI50 [18] was > 100 µM (inactive). For the same molecule, the GI50 [19] was 35.6 µM (inactive), the GI50 [48] was > 100 µM (inactive) and the GI50 [49] was > 100 µM (inactive). For the same molecule, the GI50 [20] was > 100 µM (inactive), the GI50 [22] was > 100 µM (inactive) and the GI50 [23] was > 100 µM (inactive). The GI50 [24] was > 100 µM (inactive), the GI50 [25] was > 100 µM (inactive) and the GI50 [26] was > 100 µM (inactive). For the same molecule, the GI50 [50] was > 100 µM (inactive), the GI50 [51] was > 100 µM (inactive) and the GI50 [52] was > 100 µM (inactive). The GI50 [27] was > 100 µM (inactive), the GI50 [28] was > 100 µM (inactive) and the GI50 [29] was > 100 µM (inactive). For the same molecule, the GI50 [30] was > 100 µM (inactive), the GI50 [31] was > 100 µM (inactive) and the GI50 [32] was 52.5 µM (inactive). For the same molecule, the GI50 [33] was > 100 µM (inactive), the GI50 [34] was > 100 µM (inactive) and the GI50 [35] was > 100 µM (inactive). For the same molecule, the GI50 [36] was > 100 µM (inactive), the GI50 [53] was > 100 µM (inactive) and the GI50 [37] was > 100 µM (inactive). The GI50 [54] was > 100 µM (inactive), the GI50 [38] was > 100 µM (inactive) and the GI50 [55] was > 100 µM (inactive). For the same molecule, the GI50 [39] was > 100 µM (inactive).
